# Data from patent US10092510B2, “Veterinary method for inducing emesis” (Orion Corporation, priority 2013, dated 2018).
# Where “and” joins values, the source holds several entries; their conditions need not be identical. Equal entries are not always repeated. Structures can show the parent of a compound that is named as a salt. Where two headings read alike, the source gives them in different places.
# System: dogs
# [1] = average of 6 dogs, pH 10, conc. 5 mg/ml, dose 30 μg/kg, both eyes
# [2] = individual dogs 1-6, pH 10, conc. 5 mg/ml, dose 30 μg/kg, both eyes
# [3] = average of 6 dogs, pH 4, conc. 10 mg/ml, dose 50 μg/kg, both eyes, fasted
# [4] = average of 6 dogs, pH 4, conc. 40 mg/ml, dose 100 μg/kg, right eye, fed
# [5] = individual dogs 1-6, pH 4, conc. 10 mg/ml, dose 50 μg/kg, both eyes, fasted, hydrochloride
# [6] = individual dogs 1-6, pH 4, conc. 40 mg/ml, dose 100 μg/kg, right eye, fed, hydrochloride
# Procedure: Aqueous eye drop solution comprising ropinirole hydrochloride (10 mg/ml or 40 mg/ml, pH 4) was administered into the eyes of six test dogs with doses of 50 μg/kg and 100 μg/kg for induction of emesis.
structure (smiles),measurement,setting,value
CCCN[C@H]1CCc2nc(N)sc2C1 [Pramipexole],Number of vomits,[1],3.3
same,Onset of the first vomit (average induction time for emesis),[1],4.5 min
same,The last vomit (vomiting ended on the average),[1],31.3 min
same,Prolonged emesis or irritation,"eye drop solution 5 mg/ml, pH 10, dose 30 μg/kg, six dogs",No prolonged emesis or significant irritation
same,Number of vomits,[2],6 (2×) and 1 (2×) and 3 (2×)
same,Onset of the first vomit,[2],2 min and 3 min (3×) and 4 min and 12 min
same,The last vomit,[2],62 min (2×) and 3 min and 27 min and 22 min and 12 min
"CCCN(CCC)CCc1cccc2c1CC(=O)N2 [Ropinirole HCl, Ropinirole hydrochloride]",Number of vomits,[3],3.5
same,Onset of the first vomit (average induction time for emesis),[3],6.7 min
same,The last vomit (vomiting ended on the average),[3],20.5 min
same,Number of vomits,[4],2.3
same,Onset of the first vomit (average induction time for emesis),[4],4.8 min
same,The last vomit (vomiting ended on the average),[4],12.3 min
same,"Time at which vomiting ends, from the administration","eye drop composition, general statement (typically)",≤ 20 min
same,Onset of emesis and tolerability when administered to the eye of the animal,general statement of findings,"consistent and rapid onset of emesis without producing unnecessarily prolonged emesis, ocular discomfort or significant local irritation"
same,Number of vomits,[5],3 (4×) and 2 and 7
same,Onset of the first vomit,[5],7 min and 6 min (3×) and 4 min and 11 min
same,The last vomit,[5],21 min and 20 min (2×) and 14 min and 12 min and 36 min
same,Number of vomits,[6],2 (3×) and 1 and 4 and 3
same,Onset of the first vomit,[6],6 min (2×) and 2 min and 7 min and 5 min and 3 min
same,The last vomit,[6],9 min and 10 min and 7 min and 15 min and 20 min (2×)
same,Dogs vomiting / dogs treated,"pH 4, conc. 10 mg/ml, dose 50 μg/kg, both eyes, fasted",Average 6/6
same,Dogs vomiting / dogs treated,"pH 4, conc. 40 mg/ml, dose 100 μg/kg, right eye, fed",Average 6/6
